Measurements: patent publication US10780094B2, “Use of carbonic anhydrase inhibitors for treatment of neurological and psychiatric disorders” (New York University, priority 2016, dated 2020)

Experiments:
mitochondrial CA = settings: reference (16); cited from earlier work
[1] = references (44, 45); cited from earlier work
[2] = system: caspase 9 in SH-SY5Y neuronal cells; test: Caspase-Glo 9 activity after Aβ challenge; format: cell-based, human; settings: 10 μM Aβ42; 24 hours; no drug
Description: (§1) Caspase 9 and caspase 3/7 activation was measured by luminescent assays (Caspase-Glo 9 and caspase-Glo 3/7, Promega, Madison, Wis.), in cells treated with the Aβ peptides in DMEM without FBS. Briefly, 10,000 cells/well were plated in 96 wells plates and incubated for 24 hours with the freshly solubilized Aβ peptides. Caspase-Glo reagent was added to the cell cultures resulting in cell lysis, followed by caspase cleavage of the substrate and generation of a luminescent signal produced by the luciferase reaction. After 40 minutes incubation, the amount of caspase activity was evaluated in a plate-reading luminometer (Synergy HT Multi-Mode Microplate Reader, Biotek, Winooski, Vt.) as described in (Fossati et al., 2012b). To inhibit non-specific background activity, the proteasome inhibitor MG-132 was added to the Caspase-Glo reagent before the experiment as indicated by the manufacturer. In all cases results are expressed as fold-change compared to untreated control cells.
Cells were plated at a confluence of 10.000 cells per well in 96-wells microplate luminescence microtiter (ThermoFisher, Waltham, Mass., US). The day after, cells were treated with the peptides and/or drugs for the experimental times. After that, caspase-Glo 9 assay was performed, following the protocol provided from the manufacturer. Luminescence was measured using a FlexStation 3 Multi-Mode Microplate Reader (Molecular devices, Sunnyvalem Calif., US).

caspase 9 in glial cells = test: Caspase-Glo 9 activity after Aβ challenge; format: cell-based, human; settings: 10 μM Aβ42; 24 hours; no drug
Description: as §1

SH-SY5Y cells [3] = test: Mitochondrial and cytoplasmic calcium assay (Rhod-2 AM, Fluo-4 AM); format: cell-based, human; settings: Ionomycin 5 μM at the end of the experiments
Description: (§2) This assay was performed as published in [60]. Briefly, cells were plated on 25 mm optical borosilicate poly-L-lysine-coated sterile glass covers, (ThermoFisher, Waltham, Mass., US) at a 70% confluence. 24 hours later, cells were loaded with 5 μM Rhod-2 AM or 2.5 μM Fluo-4 AM on HBSS for 45 minutes. Then, cells were washed twice with HBSS and incubated for another additional 15 minutes on fresh HBSS, without Rhod-2 AM or Fluo-4 AM. After that, HBSS was replaced again by fresh HBSS, glasses were mounted on microscopy chambers and experiments were conducted, after adding the pre-aggregated peptides and/or the drugs. Cells were mounted on Sykes-Moores chambers (BellCo, Vineland, N.J., US) and imaged every 15 seconds for 45 min, at a 20× magnification, using a Nikon fluorescent microscope (Chiyoda, Tokyo, Japan). Images were processed using NIS-Elements and ImageJ software. Due to the rapidity of this experiment, the peptide was pre-aggregated as described above to obtain oligomers before being added to the cells.

D3 cells [4] = test: as above; format: cell-based, human; settings: Ionomycin 5 μM at the end of the experiments
Description: as §2

SH-SY5Y cells [5] = test: ATP measurement (CellTiter-Glo); format: cell-based, human; settings: oligomycin 5 μM control; p<0.0001
Description: (§3) Steady state levels of ATP were estimated using the Cell Titter-Glo, according to manufacturer's instructions. Briefly, 5×10^3 cells per well of both D3 and SHSY cells were plated on 96-wells plates. The day after, cells were treated with either 10 μM Q22 or 50 μM Ab42 peptides, respectively. Peptides were added alone or in combination with increasing concentrations of MTZ (100 and 300 μM) or AZT (30 and 300 μM). Controls were treated with either DMSO or 5 μM oligomycin. After 3 hours of treatment, the plates containing the cells were equilibrated to room temperature for 30 minutes prior to addition of the luciferin/luciferase/cell lysis mixture. Absolute luminescence from quadruplicate experiments was recorded using a SpectraMax plate reader (Molecular Devices, Sunnyvalem Calif., US).

D3 cells [6] = test: ATP measurement (CellTiter-Glo); format: cell-based, human
Description: as §3

[7] = system: D3 cerebral microvascular endothelial cells; test: TMRM assay of mitochondrial membrane potential (ΔΨ); format: cell-based, human; settings: 40 μM FCCP
Description: (§4) Briefly, cells were plated on 25 mm optical borosilicate poly-L-lysine-coated sterile glass covers (ThermoFisher, Waltham, Mass., US) at a 70% confluence. The day after, cells were washed twice with HBSS and charged with 600 nM TMRM on HBSS. Cells were then incubated for 20 min in the incubator, at 37° C. and washed again with HBSS. After that, the medium was replaced by HBSS containing 150 nM of tetramethylrhodamine methyl ester (TMRM), in order to maintain the equilibrium distribution of the fluorophore. Cells were then mounted on Sykes-Moores chambers (BellCo, Vineland, N.J., US) and treated with the different drugs and/or peptides. An image was taken at minute 0 and at minute 45, after adding the drugs and/or peptides. In this experiment, the peptide was pre-aggregated as above before adding it to the cells.

SH-SY5Y neuronal cells = test: as above; format: cell-based, human; settings: 40 μM FCCP
Description: as §4

CCOc1ccc2nc(S(N)(=O)=O)sc2c1 [ETZ, ethoxzolamide]
activity on mitochondrial CA (mitochondrial CA): high activity | ROS formation and cell death induced by high glucose [1]: inhibit ROS formation and cell death

Aβ42: Synthetic homologue of the amyloid subunit Aβ42, used to challenge cells
caspase 9 activation increase compared to control cells [2]: about 1.5 times | caspase 9 activation increase compared to control cells (caspase 9 in glial cells): about 1.5 times

C[C@H](CCC(=O)O)C[C@H](C)C[C@H](C)C(=O)/C=C(\O)[C@H](C)C[C@H](C)C/C=C/[C@@H](C)[C@@H](O)[C@@H](C)[C@@H](O)C[C@@H]1CC[C@@](C)([C@H]2CC[C@@](C)([C@@H](C)O)O2)O1 [Ionomycin]
mitochondrial and cytoplasmic calcium levels (SH-SY5Y cells [3]): increase in mitochondrial and cytoplasmic calcium levels | mitochondrial and cytoplasmic calcium levels (D3 cells [4]): increase in mitochondrial and cytoplasmic calcium levels

CC[C@H]1/C=C/C=C/C[C@@H](C)[C@H](O)[C@@](C)(O)C(=O)[C@@H](C)[C@H](O)[C@@H](C)C(=O)[C@@H](C)[C@H](O)[C@@H](C)/C=C/C(=O)O[C@@H]2[C@H](C)[C@H](CC1)O[C@]1(CC[C@H](C)[C@H](C[C@@H](C)O)O1)[C@H]2C [oligomycin]
decrease in ATP levels (SH-SY5Y cells [5]): 34% | increase in ATP luminescence (D3 cells [6]; oligomycin 5 μM, p=0.0002): 32.4%

N#CC(C#N)=NNc1ccc(OC(F)(F)F)cc1 [FCCP, p-trifluoromethoxyphenylhydrazone]
mitochondrial depolarization after treatment with drugs and peptides [7]: further depolarized | mitochondrial depolarization after treatment with drugs and peptides (SH-SY5Y neuronal cells): further depolarized

Aβ40-Q22: Synthetic Aβ40, the Dutch genetic variant, containing the E22Q substitution
increase in steady state ATP levels (D3 cells [6]; peptide alone, p=0.001): 21.6%
